These results are taken from US8841254B2, “Method for treatment of anxiety” (Howard Florey Institute of Experimental Physiology and …, priority 2001, dated 2014).

Assay [1] deals with T1, relaxin binding sites in THP-1 cells (Homo sapiens, UniProt Q9HBX9).
T1 construct: induce cAMP production in the human monocytic cell line (THP-1); endogenous in cells; host or cells: THP-1 (human monocytic cell line)
T1 sequence (Q9HBX9 1-757): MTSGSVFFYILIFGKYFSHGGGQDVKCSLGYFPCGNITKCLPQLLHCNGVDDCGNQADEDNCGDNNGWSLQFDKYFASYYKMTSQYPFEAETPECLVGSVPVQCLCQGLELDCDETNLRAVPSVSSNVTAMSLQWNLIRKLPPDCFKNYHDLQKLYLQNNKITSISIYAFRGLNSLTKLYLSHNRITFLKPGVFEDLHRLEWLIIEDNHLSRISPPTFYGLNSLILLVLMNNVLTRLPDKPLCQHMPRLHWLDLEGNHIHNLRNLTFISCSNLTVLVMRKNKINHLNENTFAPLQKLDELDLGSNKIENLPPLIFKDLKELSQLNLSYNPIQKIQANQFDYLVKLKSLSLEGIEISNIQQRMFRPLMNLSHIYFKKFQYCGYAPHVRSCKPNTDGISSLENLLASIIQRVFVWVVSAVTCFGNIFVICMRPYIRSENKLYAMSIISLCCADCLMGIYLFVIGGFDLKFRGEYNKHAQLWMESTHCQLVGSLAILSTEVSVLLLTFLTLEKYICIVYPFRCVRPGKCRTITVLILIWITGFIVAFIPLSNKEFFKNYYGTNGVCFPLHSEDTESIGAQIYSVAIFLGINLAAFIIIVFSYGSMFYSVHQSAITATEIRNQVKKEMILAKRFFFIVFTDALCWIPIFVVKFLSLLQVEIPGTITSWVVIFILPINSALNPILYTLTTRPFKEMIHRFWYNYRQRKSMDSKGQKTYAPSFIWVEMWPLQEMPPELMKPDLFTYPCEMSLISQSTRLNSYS
In words: THP-1 cell binding assay (competition for 33P-labeled H2 relaxin (B33)). The procedure: THP-1 cells were spun down and resuspended in binding buffer (20 mM HEPES, 50 mM NaCl, 1.5 mM CaCl2, 1% BSA, 0.1 mg/ml lysine, 0.01% […], pH 7.5) (Parsell et al (1996) J. Biol. Chem. 271, 27936-27941) to give 2×10^6 cells/well in a 96-well plate. The cells were incubated in binding buffer with ^33P-labeled H2 (B33) relaxin (100 pM: labeled as previously described (Tan et al (1999) Br. J. Pharmacol. 127, 91-98) at 25° C. for 90 min in the absence or presence of increasing concentrations of unlabeled H1, H2 and H3 relaxin ([…]). Non-specific binding was defined with H2 relaxin (1 μM). Cells were harvested using a Packard 96-well plate cell harvester and Whatman GF/C glass fibre filters treated with 0.5% polyethylenimine. The filters were washed three times with modified binding buffer (20 mM HEPES, 50 mM NaCl, 1.5 mM CaCl2), dried in a 37° C. oven, and the radioactivity counted by liquid scintillation spectrometry (TopCount™, Canberra Packard, Australia).

The test system of assay [2] is goat anti-H2 relaxin antibody. In words: Antibody crossreactivity radioimmunoassay (displacement of 125I-labeled H2 relaxin). It counts as binding. The conditions noted are these: FIG. 4. The procedure: The ability of well characterized human relaxin antibodies to recognize H3 relaxin was tested in comparison to H1 and H2 relaxins by radioimmunoassay. Briefly, goat anti-H2 relaxin (Lucas et al (1989) J. Endocrinol. 120, 449-57) was coated onto 96 well ELISA plates (Disposable Products, Adelaide, Australia) at a dilution of 1:1000 with 0.05M sodium carbonate buffer at 4° C. overnight. After washing twice with PBS-T (phosphate buffered saline; 0.05% Tween 20, pH 7.4) dilutions of human relaxin peptides dissolved in 50 μl of assay buffer (1% BSA in PBS-T) were added together with 50,000 cpm ^125I-labeled relaxin, in 50 μl of assay buffer. H2 relaxin was ^125I-labeled and purified by HPLC (Palejwala et al (1998) Endocrinology 139, 1208-1212). After an overnight incubation at 4° C. the plates were washed twice with PBS-T. The antibody-bound-^125I-labeled H2 relaxin was collected by the addition of 1M NaOH and decanted into tubes for counting on a Packard 5010 gamma counter (Canberra Packard). Experiments were performed at least twice and similar results obtained. Data was plotted as the mean±SEM from one representative experiment performed in triplicate and plotted using PRISM.

The target of assay [3] is T2, human relaxin receptors (THP-1 cells) (Homo sapiens, UniProt Q9HBX9).
T2 construct: induce cAMP production in the human monocytic cell line (THP-1); endogenous in cells; host or cells: THP-1 (human monocytic cell line)
T2 sequence (Q9HBX9 1-757): T1 sequence (Q9HBX9 1-757)
In words: THP-1 cell bioassay (cAMP production). It counts as cell-based. The conditions noted are these: doses up to 1 μM. The procedure:
Biol. Chem. 271, 27936-27941), with the following modifications; […] The plate was then briefly centrifuged, the media removed and the cells resuspended in lysis buffer. cAMP levels were measured in the lysates using the cAMP Biotrak EIA system (Amersham International, Aylesbury, UK). […] Data represent the mean±SEM of three experiments performed in quadruplicate, and are plotted using PRISM (Graphpad Inc., San Diego, Calif.).

The term Ki denotes the equilibrium dissociation constant of an inhibitor or competing ligand from its target. The compound `CC[C@H](C)[C@@H]1NC(=O)[C@H](Cc2ccccc2)NC(=O)[C@H](CCC(=O)O)NC(=O)[C@H](CCCNC(=N)N)NC(=O)CNC(=O)[C@@H](NC(=O)[C@H](CC(C)C)NC(=O)[C@H](CCCNC(=N)N)NC(=O)[C@@H](NC(=O)CNC(=O)[C@H](Cc2ccc(O)cc2)NC(=O)[C@@H]2CCCN2C(=O)[C@H](C)NC(=O)[C@H](C)NC(=O)[C@@H](N)CCCNC(=N)N)C(C)C)CSSC[C@@H]2NC(=O)[C@@H](NC(=O)[C@H](CO)NC(=O)[C@H](CO)NC(=O)[C@H](CO)NC(=O)[C@H](CC(C)C)NC(=O)CNC(=O)[C@H](C)NC(=O)[C@H](CC(C)C)NC(=O)[C@@H](NC(=O)[C@@H](N)CC(=O)O)C(C)C)CSSC[C@H](NC(=O)CNC(=O)[C@H](Cc3c[nH]c4ccccc34)NC(=O)[C@H](CCCCN)NC2=O)C(=O)N[C@@H](CO)C(=O)N[C@@H](CCCCN)C(=O)N[C@@H](CO)C(=O)N[C@@H](CCC(=O)O)C(=O)N[C@@H]([C@@H](C)CC)C(=O)N[C@@H](CO)C(=O)N[C@@H](CO)C(=O)N[C@@H](CC(C)C)C(=O)N[C@H](C(N)=O)CSSC[C@@H](C(=O)NCC(=O)NCC(=O)N[C@@H](CO)C(=O)N[C@@H](CCCNC(=N)N)C(=O)N[C@@H](Cc2c[nH]c3ccccc23)C(N)=O)NC(=O)[C@H]([C@@H](C)O)NC(=O)[C@H](Cc2ccccc2)NC(=O)[C@H]([C@@H](C)CC)NC(=O)[C@H](C(C)C)NC(=O)[C@H](C)NC(=O)[C@H](CCCNC(=N)N)NC1=O` [H3 relaxin, Human Relaxin H3 [hR]x-3 A (1-24) Amide-B (1-27) Amide] showed an inhibition constant (Ki) in assay [1] of 31.6 nM. For the same compound, in assay [2], the “ability to displace 125I-labeled H2 relaxin binding to the anti-H2 relaxin antibody” value was “poor cross reactivity”.

Consider “H2 relaxin: recombinant H2 relaxin, a gift from the Connetics Corporation”, for which the “ability to displace 125I-labeled H2 relaxin binding to the anti-H2 relaxin antibody” value in assay [2] was “able to displace”.

Regarding bovine insulin [bINSL], the “ability to stimulate cAMP responses” value in assay [3] is given as “inability”.

For the compound “hINSL3: Human INSL3 synthesized using the same methodology used for ovine INSL3 (chain 1 AAATNPARYCCLSGCTQQDLLTLCPY; chain 2 PTPEMREKLCGHHFVRALVRVCGGPRWSTEA)”, the “ability to stimulate cAMP responses” value in assay [3] is listed as “inability”.
